# Assay results from patent US9801839B2, “Therapeutic method” (Macfarlane Burnet Institute for Medical Research and Public …, priority 2014, dated 2017).
# Entries after “also recorded” stand apart in the source; their conditions may differ. Where a name gives a salt, the structure may show the parent alone.
# Columns and labels:
# [1] = system: Ect cells; experiment: Cytokine release in transwells (FlowCytomix bead assay); format: cell-based, human; details: for IL-6 secretion induced by TLR3 agonist PIC / IL-8 secretion induced by TLR3 agonist PIC / IL-1RA production: 0.3% acid pH 3.9 or media acidified to pH 3.9 with HCl; for IL-1RA production: absence or presence of PIC
# Procedure: (§1) Cytokines were measured using FlowCytomix assays, utilising the basic reagents kit, in conjunction with simplex kits for IL-6, IL-8 and IL-1RA (eBiosciences).
# (§2) Test Procedure • 1. Calculate required volumes of reagents and make standards, bead mixtures and biotin-conjugate as described above. • 2. Add 15 μL of either standard, sample or blank (1× assay buffer) to appropriately labelled tubes. • 3. Add 15 μL of prepared bead mixture to each tube. • 4. Add 30 μL of biotin-conjugate mix to each tube, mix tubes well and incubate at room temp for 2 hours. Protect samples from light with foil. • 5. Prepare Streptavidin-PE mix. • 6. Add 0.6 ml 1× assay buffer to each tube and centrifuge at 200 g for 5 min. • 7. Discard s/n, leaving approx. 100 μL. Repeat for a total of 2 washes. • 8. Add 30 μL of Streptavidin-PE mix to all tubes, mix well and incubate at room temp for 1 hour (protected from light). • 9. Add 0.6 ml 1× assay buffer to each tube and centrifuge at 200 g for 5 min. • 10. Discard s/n, leaving approx. 100 μL. Repeat for a total of 2 washes. • 11. Discard s/n from final wash, leaving 100-200 μL of buffer. Analyse samples on the flow cytometer within 24 hours (preferable the same day as the experiment).
# (§3) The following concentrations of TLR agonists (Table 3.) have been used to activate FGT cells either alone of added with LA-containing media for 18-24 hours.
# [2] = system: vaginal (VK2) epithelial cells
# [3] = system: endocervical (End) epithelial cells
# [4] = system: ectocervical (Ect) epithelial cells
# [5] = system: Ect1 E6/E7 ectocervical epithelial cell line; experiment: Cyto/chemokine analysis (Procartaplex, Luminex) after 1 hour treatment; format: cell-based, human; details: Ect; for IL-1RA production from cells stimulated with PIC, acid alone / PIC-induced cytokine production, acid alone: 0.03% benzoic acid or 0.15% citric acid; for PIC-induced cytokine production, acid alone: compared with low pH alone (HCl); for LA-induced production of IL-1RA in the presence of the acid: 0.3% LA with 0.03% benzoic acid or 0.15% citric acid; for IL-1RA production, no TLR agonist / IL-6 basal production, no TLR agonist: 1 hour treatment at pH 3.9 (acids at various concentrations, gels diluted to about 0.3% LA), supernatant after 18 hours; for other immune mediators (IL-8, MIP3α, TNF, IL-1B, RANTES), no TLR agonist: 1 hour treatment at pH 3.9, not shown; for LA inhibition of PIC-induced IL-8, IL-6 and TNF in the presence of the acid: PIC and 0.3% LA with 0.03% benzoic acid or 0.15% citric acid
# [6] = system: Ect1 E6/E7 ectocervical epithelial cell line; experiment: Viability (MTS) 18 hours after 1 hour treatment; details: range of concentrations, pH 3.9, 1 hour incubation, read 18 hours later
# Procedure: The human ectocervical epithelial cell line Ect1 E6/E7 was utilized for these experiments. Cells were cultured and treated in serum free keratinocyte media (SFKM) containing supplements as per ATCC recommendations. Cells were seeded in 6 mm transwell inserts at a density of 100,000 cells per well, and cultured for 7 days prior to treatment. […] Cytokine-containing supernatants were collected and stored at −80° C. for future analysis and cell viability assessed via MTS assay as per manufacturer's recommendations.
# NOTE: The pH of all treatment media containing gels/acids was adjusted to pH 3.9 (to match that of 0.3% LA) prior to treatment. This was performed to ensure that a similar concentration of protonated LA, the active form of LA, was compared. A pH control (media adjusted to pH 3.9 with HCl) was included to determine the effect of low pH alone.
# Due to the poor buffering capacity of HCl, treatments containing HCl were refreshed every 20 min during the 1 hour treatment time to ensure the low pH of the treatment media was maintained.
# [7] = system: Ect cells; experiment: Cytokine release in transwells (FlowCytomix bead assay); format: cell-based, human; details: 0.3%
# [8] = system: epithelial cells from the lower female reproductive tract; experiment: Cytotoxicity in a standard plate format; format: cell-based, human; details: 0.4% L-lactic acid, standard plate format (data not shown)
# [9] = system: End cells; experiment: Cytokine release in transwells (FlowCytomix bead assay); format: cell-based, human
# Procedure: (§4) An analysis was performed to determine if physiologic noncytotoxic concentrations of L-LA alter the release of immune modulators by VK2, End and Ect cells by incubating cells in transwells with L-LA for 24 h at 37° C. in serum free keratinocyte medium and harvesting supernatants (from the apical chamber) for release of immune modulators.
# as §1, §2, §3
# [10] = system: VK2 cells; experiment: as above; format: cell-based, human
# Procedure: as §4, §1, §2, §3
# [11] = system: primary ectocervical cells; experiment: Cytokine/chemokine production by primary cells in transwells; format: cell-based, human; details: 0.3% LA, PIC or both
# Excerpt: Culture of Human Primary Ectocervical Cells in Transwells. To further qualify the data in Example 9, we repeated the experiment with primary ectocervical cells.
# [12] = system: human female reproductive tissue; details: low pH; cited from earlier work
# [13] = 0.3% acid (pH 3.9) or low pH alone (pH 3.9 with HCl)
# [14] = added to the apical medium in the transwell system, 24 hr
# [15] = 0.3% in apical medium, pH 3.9, 24 h
# [16] = 0.3%, pH 3.9, absence or presence of PIC
# [17] = PIC 1 hour with 0.3% LA or gels diluted to about 0.3% LA, pH 3.9
compound,measurement,setting,value
"C[C@@H](O)C(=O)O [D-LA, D-(−)-lactic acid]",IL-6 secretion induced by TLR3 agonist PIC,[1],reduce secretion
same,IL-8 secretion induced by TLR3 agonist PIC,[1],reduce secretion
same,IL-1RA production,[1],increase IL-1RA production
"Cl [HCl, Hydrochloric acid, reference compound]",effect on cell viability,[2]; [13],non-toxic
same,effect on cell viability,[3]; [13],non-toxic
same,IL-6 secretion induced by TLR3 agonist PIC,[1],neither neutralised L-LA nor HCl acidified media had any significant effect
same,IL-8 secretion induced by TLR3 agonist PIC,[1],neither neutralised L-LA nor HCl acidified media had any significant effect
same,IL-1RA production,[1],neither neutralised L-LA nor HCl acidified media had any significant effect
same,effect on cell viability,[4]; [13],non-toxic
"O=C(O)CC(O)(CC(=O)O)C(=O)O [citric acid, Citric acid]","IL-1RA production from cells stimulated with PIC, acid alone",[5],neither citric nor benzoic acid altered
same,"PIC-induced cytokine production, acid alone",[5],did not appear to alter
same,"IL-1RA production, acid in combination with PIC and LA","[5]; 0.15% citric acid, compared to cells stimulated with LA and PIC",reduced production
same,LA-induced production of IL-1RA in the presence of the acid,[5],largely preserved
same,"IL-1RA production, no TLR agonist",[5],Neither acid was associated with an altered expression
same,"IL-6 basal production, no TLR agonist",[5],Neither acid was associated with an altered expression
same,"other immune mediators (IL-8, MIP3α, TNF, IL-1B, RANTES), no TLR agonist",[5],similarly unaltered
same,"LA inhibition of PIC-induced IL-8, IL-6 and TNF in the presence of the acid",[5],persists
"O=C(O)c1ccccc1 [benzoic acid, Benzoic acid]","IL-1RA production from cells stimulated with PIC, acid alone",[5],neither citric nor benzoic acid altered
same,"PIC-induced cytokine production, acid alone",[5],did not appear to alter
same,LA-induced production of IL-1RA in the presence of the acid,[5],largely preserved
same,"IL-1RA production, no TLR agonist",[5],Neither acid was associated with an altered expression
same,"IL-6 basal production, no TLR agonist",[5],Neither acid was associated with an altered expression
same,"other immune mediators (IL-8, MIP3α, TNF, IL-1B, RANTES), no TLR agonist",[5],similarly unaltered
same,"LA inhibition of PIC-induced IL-8, IL-6 and TNF in the presence of the acid",[5],persists
same,"viability of Ect cells, acid excipients",[6],Neither benzoic nor citric acid had any significant effect
"C[C@H](O)C(=O)O [L-LA, L-(+)-lactic acid]",L-lactic acid concentrations tolerated,[2]; [14],up to 0.4%
same,L-lactic acid concentrations tolerated,[3]; [14],up to 0.4%
same,MIP3α production induced by TLR agonist (PIC),[7],reduced the production
same,RANTES production induced by TLR agonist (PIC),[7],reduced the production
same,TNFα production induced by TLR agonist (PIC),[7],reduced the production
same,cytotoxicity in standard plate format,[8],highly cytotoxic
same,IL-6 secretion induced by TLR3 agonist PIC,[9]; [15],reduces secretion
same,IL-8 secretion induced by TLR3 agonist PIC,[9]; [15],reduces secretion
same,IL-1RA production with Pam3Ck (TLR2) and lipopolysaccharide (TLR4),"[9]; 0.3%, pH 3.9",same result
same,IL-1RA production,[9]; [16],induces IL-1RA production
same,IL-6 secretion induced by TLR3 agonist PIC,[10]; [15],reduces secretion
same,IL-8 secretion induced by TLR3 agonist PIC,[10]; [15],reduces secretion
same,IL-1RA production with Pam3Ck (TLR2) and lipopolysaccharide (TLR4),"[10]; 0.3%, pH 3.9",same result
same,IL-1RA production,[10]; [16],induces IL-1RA production
same,IL-6 secretion induced by TLR3 agonist PIC,[1],reduce secretion; also recorded: reduced the production
same,IL-8 secretion induced by TLR3 agonist PIC,[1],reduce secretion; also recorded: reduced the production
same,IL-1RA production,[1],induces IL-1RA production; also recorded: increase IL-1RA production; also recorded: significant increase
same,"decreasing levels of proinflammatory cytokines (IL-6, IL-8) induced by PIC, neutralised",[1]; 0.3% at pH 7.4,neither neutralised L-LA nor HCl acidified media had any significant effect
same,"increasing the production of IL-1RA, neutralised",[1]; 0.3% at pH 7.4,neither neutralised L-LA nor HCl acidified media had any significant effect
same,"treatment time sufficient for the effects on IL-1RA, IL-6, IL-8, TNFα, RANTES and MIP3α","[1]; 0.3% with or without PIC for 0.5, 1 or 18 hrs, cytokines measured at 18 hrs",30 min
same,IL-1RA production with Pam3Ck (TLR2) and lipopolysaccharide (TLR4),"[1]; 0.3%, pH 3.9",same result
same,L-lactic acid concentrations tolerated,[4]; [14],up to 0.4%
"CC(O)C(=O)O (centres unmarked) [LA, lactic acid]","IL-1β production, no TLR agonist","[5]; 1 hour treatment, levels below the limit of detection (data not shown)",small increase
same,PIC-induced production of IL-6,[5]; [17],inhibits
same,PIC-induced production of IL-8,[5]; [17],inhibits
same,PIC-induced production of TNF,[5]; [17],inhibits
same,"production of IL-1RA, IL-6, IL-8, TNFα, RANTES and MIP3α",[11],trend similar to that of LA treatment of cells lines
same,inflammatory activity on human female reproductive tissue,[12],pro-inflammatory
